Patent publication US8293729B2 (Boehringer Ingelheim International GmbH, priority 2009, dated 2012)
pEC50: −log10 of the molar value.

These molecules were tested against T1, human GPR119 receptor (Homo sapiens, UniProt Q8TDV5, S329A/T327A) (assay: cAMP assay (LANCE cAMP-384) in HEK293 cells stably expressing mutant human GPR119 receptor). Settings: HEK293, 20 min; at 10 μM; printed in EC50 column of the 34th table; read-out: stimulation in % at 10 μM.
T1 construct: N-terminal leader […]; expressed in transfected cells
T1 sequence (Q8TDV5 with tags, fused parts or gaps T327A/S329A): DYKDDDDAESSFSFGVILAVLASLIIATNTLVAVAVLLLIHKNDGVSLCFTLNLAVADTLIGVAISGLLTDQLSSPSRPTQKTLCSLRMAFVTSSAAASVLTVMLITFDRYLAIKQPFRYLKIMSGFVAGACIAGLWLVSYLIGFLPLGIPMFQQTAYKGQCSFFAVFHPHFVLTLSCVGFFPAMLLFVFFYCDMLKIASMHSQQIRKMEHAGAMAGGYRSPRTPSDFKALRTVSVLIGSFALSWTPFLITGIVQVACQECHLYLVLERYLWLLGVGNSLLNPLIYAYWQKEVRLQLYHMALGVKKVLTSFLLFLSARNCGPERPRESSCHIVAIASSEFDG
Assay type: cell-based
Summary of the method: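 HEK293 cells stably expressing human GPR119 (T327A/S329A, modified N-terminus), 1000 cells/well, exposed to compound for 20 min at 37° C. cAMP quantified by LANCE TR-FRET against a standard curve; EC50 from 12 points, 30 μM to 100 pM, or % stimulation at 10 μM.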

Row | SMILES | activation at 10 µM [%]
1 | CC(C)OC(=O)CN1CCC(ON=C2CCN(c3ccc(S(C)(=O)=O)cc3F)CC2)CC1 [Example 65-3] | 64

Same assay, conditions: HEK293, 20 min; single concentration 10 μM; given where no EC50 value could be determined; read-out: % stimulation at 10 μM

Row | SMILES | activation at 10 µM [%]
2 | CC(C)OC(=O)N1CCC(ON=C2CCN(c3cc(F)c(-c4nnn[nH]4)cc3F)CC2)CC1 [Example 27-28] | 86

Same assay, conditions: cAMP accumulation, HEK293 cells stably expressing mutant human GPR119; read-out: EC50

Row | SMILES | pEC50
3 | Cc1cc(N2CCC(=NOC3CCN(C(=O)OC(C)C)CC3)CC2)ccn1 [Example 2-6] | 5.83
4 | CC(C)OC(=O)N1CCC(ON=C2CCN(c3ccc(S(C)(=O)=O)cc3)CC2)CC1 [Example 2-16] | 6.48
5 | CC(C)OC(=O)N1CCC(ON=C2CCN(c3nc(C=O)c(Cl)s3)CC2)CC1 [Example 2-25] | < 5.00
6 | CC(C)OC(=O)N1CCC(ON=C2CCN(c3ccc(C=O)cc3Cl)CC2)CC1 [Example 2-31] | 5.90
7 | CNCCNC(=O)c1cc(F)c(N2CCC(=NOC3CCN(C(=O)OC(C)C)CC3)CC2)cc1F [Example 31-1, 4-{1-[2,5-Difluoro-4-(2-methylamino-ethylcarbamoyl)-phenyl]-piperidin-4-ylideneaminooxy}-piperidine-1-carboxylic acid isopropyl ester] | 6.37
8 | CC(C)OC(=O)N1CCC(ON=C2CCN(c3cc(F)c(C=O)cc3F)CC2)CC1 [Example 2-3] | 7.85
9 | CC(C)OC(=O)N1CCC(ON=C2CCN(c3cc(F)c(CO)cc3F)CC2)CC1 [Example 10-1, 4-[1-(2,5-Difluoro-4-hydroxymethyl-phenyl)-piperidin-4-ylideneaminooxy]-piperidine-1-carboxylic acid isopropyl ester] | 8.05
10 | CC(C)OC(=O)N1CCC(ON=C2CCN(c3nccc(N(C)C)n3)CC2)CC1 [Example 2-44] | < 5.00
11 | COCc1cc(F)c(N2CCC(=NOC3CCN(C(=O)OC(C)C)CC3)CC2)cc1F [Example 49-1, 4-[1-(2,5-Difluoro-4-methoxymethyl-phenyl)-piperidin-4-ylideneaminooxy]-piperidine-1-carboxylic acid isopropyl ester] | 6.58
12 | COC(=O)c1nc(Cl)c(N2CCC(=NOC3CCN(C(=O)OC(C)C)CC3)CC2)nc1N [Example 2-34] | < 5.00
13 | Cc1cc(C=O)ccc1N1CCC(=NOC2CCN(C(=O)OC(C)C)CC2)CC1 [Example 2-29] | 5.50
14 | CC(C)OC(=O)N1CCC(ON=C2CCN(c3nc(Cl)ccc3CO)CC2)CC1 [Example 2-27] | < 5.00
15 | CC(C)OC(=O)N1CCC(ON=C2CCN(c3cc(F)c(-c4cccs4)cc3F)CC2)CC1 [Example 27-1, 4-[1-(2,5-Difluoro-4-thiophen-2-yl-phenyl)-piperidin-4-ylideneaminooxy]-piperidine-1-carboxylic acid isopropyl ester] | 6.70
16 | CC(C)OC(=O)N1CCC(ON=C2CCN(c3cc(F)c([S+](C)[O-])cc3F)CC2)CC1 (centres unmarked) [Example 43-1, 4-[1-(2,5-Difluoro-4-methanesulfinyl-phenyl)-piperidin-4-ylideneaminooxy]-piperidine-1-carboxylic acid isopropyl ester] | 7.24
17 | Cc1nc(C)c(-c2cc(F)c(N3CCC(=NOC4CCN(C(=O)OC(C)C)CC4)CC3)cc2F)s1 [Example 27-25] | < 5.00
18 | COc1nc(N2CCC(=NOC3CCN(C(=O)OC(C)C)CC3)CC2)ncc1Br [Example 2-56] | < 5.00
19 | CC(C)OC(=O)N1CCC(ON=C2CCN(c3cc(F)c(-n4ccnc4)cc3F)CC2)CC1 [Example 22-1, 4-[1-(2,5-Difluoro-4-imidazol-1-yl-phenyl)-piperidin-4-ylideneaminooxy]-piperidine-1-carboxylic acid isopropyl ester] | 6.36
20 | CC(C)OC(=O)N1CCC(ON=C2CCN(c3cc(F)c(-c4ccsc4)cc3F)CC2)CC1 [Example 27-12] | 6.61
21 | CC(C)OC(=O)N1CCC(ON=C2CCN(c3c(C(=O)O)ccnc3Cl)CC2)CC1 [Example 2-59] | < 5.00
22 | CC(=O)NCc1cc(F)c(N2CCC(=NOC3CCN(C(=O)OC(C)C)CC3)CC2)cc1F [Example 16-2] | 6.85

Same assay, conditions: the 15th table; read-out: EC50

Row | SMILES | pEC50
23 | CC(C)OC(=O)N1CCC(ON=C2CCN(c3cc(F)c(C(=O)NCCN)cc3F)CC2)CC1 [Example 29-6] | 6.42

Same assay, conditions: the 19th table; unit inferred; read-out: EC 50

Row | SMILES | pEC50
24 | CCc1cnc(N2CCC(ON=C3CCN(c4cc(F)c(C(=O)NCC5CCNC5)cc4F)CC3)CC2)nc1 (centres unmarked) [Example 29-90] | 7.17
25 | CCc1cnc(N2CCC(ON=C3CCN(c4cc(F)c(C(=O)N5CCC[C@@H]5CNC)cc4F)CC3)CC2)nc1 [Example 29-135] | 6.53
26 | CCc1cnc(N2CCC(ON=C3CCN(c4cc(F)c(C(=O)NCC5CNCCO5)cc4F)CC3)CC2)nc1 (centres unmarked) [Example 29-113] | 7.59
27 | CCc1cnc(N2CCC(ON=C3CCN(c4cc(F)c(C(=O)N5CCCCC5CN)cc4F)CC3)CC2)nc1 (centres unmarked) [Example 29-131] | 7.19
28 | CCc1cnc(N2CCC(ON=C3CCN(c4cc(F)c(C(=O)NC5CCNC5)cc4F)CC3)CC2)nc1 (centres unmarked) [Example 29-123] | 6.39
29 | CCc1cnc(N2CCC(ON=C3CCN(c4cc(F)c(C(=O)NCC5CCCNC5)cc4F)CC3)CC2)nc1 (centres unmarked) [Example 29-93] | 7.25

Same assay, conditions: the 25th table; read-out: EC50

Row | SMILES | pEC50
30 | COC(=O)/C=C/c1cc(F)c(N2CCC(=NOC3CCN(C(=O)OC(C)C)CC3)CC2)cc1F [Example 39-1, 4-{1-[2,5-Difluoro-4-((E)-2-methoxycarbonyl-vinyl)-phenyl]-piperidin-4-ylideneaminooxy}-piperidine-1-carboxylic acid isopropyl ester] | 7.34

Same assay, conditions: the 26th table; read-out: EC50

Row | SMILES | pEC50
31 | CC(C)OC(=O)N1CCC(ON=C2CCN(c3ccc(S(C)(=O)=O)cn3)CC2)CC1 [Example 46-3] | 6.21

Same assay, conditions: the 28th table; read-out: EC50

Row | SMILES | pEC50
32 | CC(C)OC(=O)N1CCC(ON=C2CCN(c3ncc(-n4cccn4)cc3F)CC2)CC1 [Example 51-2] | 6.25

Same assay, conditions: the 32nd table; read-out: EC50

Row | SMILES | pEC50
33 | CS(=O)(=O)c1ccc(N2CCC(=NOC3CCN(c4ncccn4)CC3)CC2)c(F)c1 [Example 63-8] | 6.62
34 | CS(=O)(=O)c1ccc(N2CCC(=NOC3CCN(c4ccc(Cl)cn4)CC3)CC2)c(F)c1 [Example 63-24] | 6.01
35 | CS(=O)(=O)c1ccc(N2CCC(=NOC3CCN(c4ccc(S(C)(=O)=O)cc4F)CC3)CC2)c(F)c1 [Example 63-22] | 6.40
36 | Cc1ccnc(N2CCC(ON=C3CCN(c4ccc(S(C)(=O)=O)cc4F)CC3)CC2)n1 [Example 63-16] | 6.12
37 | CS(=O)(=O)c1ccc(N2CCC(=NOC3CCN(c4ccnc(Cl)n4)CC3)CC2)c(F)c1 [Example 63-5] | < 5.00

Same assay, conditions: the 33rd table; read-out: EC50

Row | SMILES | pEC50
38 | CC[C@H](C)COC(=O)N1CCC(ON=C2CCN(c3ccc(S(C)(=O)=O)cc3F)CC2)CC1 [Example 64-48] | 7.27
39 | CCOCCOC(=O)N1CCC(ON=C2CCN(c3ccc(S(C)(=O)=O)cc3F)CC2)CC1 [Example 64-10] | 5.89

Same assay, conditions: the 36th table, compounds 66-1 to 66-51; read-out: EC50

Row | SMILES | pEC50
40 | Cc1nc(CN2CCC(ON=C3CCN(c4ccc(S(C)(=O)=O)cc4F)CC3)CC2)c[nH]1 [Example 66-8] | < 5.00
41 | CCc1ccc(CN2CCC(ON=C3CCN(c4ccc(S(C)(=O)=O)cc4F)CC3)CC2)cc1 [Example 66-27] | 6.96
42 | CS(=O)(=O)c1ccc(N2CCC(=NOC3CCN(Cc4ncco4)CC3)CC2)c(F)c1 [Example 66-20] | < 5.00

Same assay, conditions: the 37th table, compounds 66-52 to 66-64; read-out: EC50

Row | SMILES | pEC50
43 | CCCCc1ccc(CN2CCC(ON=C3CCN(c4cc(F)c(S(C)(=O)=O)cc4F)CC3)CC2)cc1 [Example 66-57] | 7.54
44 | CCc1ccc([C@H](C)N2CCC(ON=C3CCN(c4cc(F)c(S(C)(=O)=O)cc4F)CC3)CC2)cc1 [Example 66-63] | 6.53

Same assay, conditions: the 38th table, compounds 66-65 to 66-72; read-out: EC50

Row | SMILES | pEC50
45 | CNC(=O)c1cc(F)c(N2CCC(=NOC3CCN(Cc4ccc(-c5cncnc5)cc4)CC3)CC2)cc1F [Example 66-69] | 5.65
46 | CNC(=O)c1cc(F)c(N2CCC(=NOC3CCN(Cc4ccc(C(F)(F)F)cc4)CC3)CC2)cc1F [Example 66-67] | 6.81
47 | CNC(=O)c1cc(F)c(N2CCC(=NOC3CCN(Cc4ccc(-c5cccnc5)cc4)CC3)CC2)cc1F [Example 66-66] | 5.90

Same assay, conditions: the 39th table, compounds 67-1 to 67-3; read-out: EC50

Row | SMILES | pEC50
48 | Cc1ccc(N2CCC(ON=C3CCN(c4ccc(S(C)(=O)=O)cc4F)CC3)CC2)cn1 [Example 67-3] | 6.13
49 | Cc1ccc(N2CCC(ON=C3CCN(c4ccc(S(C)(=O)=O)cc4F)CC3)CC2)nc1 [Example 67-1, 1-(2-Fluoro-4-methanesulfonyl-phenyl)-piperidin-4-one O-(5′-methyl-3,4,5,6-tetrahydro-2H-[1,2′]bipyridinyl-4-yl)-oxime] | 6.41

Same assay, conditions: the 43rd table, compounds 75-1 to 75-38; read-out: EC50

Row | SMILES | pEC50
50 | CC(C)OC(=O)N1CCC(ON=C2CCN(c3cc(F)c(CC(=O)N4CCC[C@H]4CN4CCCC4)cc3F)CC2)CC1 [Example 75-29] | 5.54
51 | CC(C)OC(=O)N1CCC(ON=C2CCN(c3cc(F)c(CC(=O)NCC4CCNCC4)cc3F)CC2)CC1 [Example 75-26] | 6.63
52 | CC(C)OC(=O)N1CCC(ON=C2CCN(c3cc(F)c(CC(=O)N4CCC(CN)CC4)cc3F)CC2)CC1 [Example 75-9] | 6.84

Same assay, conditions: the 44th table, compounds 77-1 to 77-14; read-out: EC50

Row | SMILES | pEC50
53 | CCc1cnc(N2CCC(ON=C3CCN(c4cc(F)c(CC(=O)N5CC[C@H](N(C)C)C5)cc4F)CC3)CC2)nc1 [Example 77-5] | 8.22
